For experiment [1], the target named is T1, ACE (Oryctolagus cuniculus, UniProt P12822).
T1 sequence (P12822 34-1310): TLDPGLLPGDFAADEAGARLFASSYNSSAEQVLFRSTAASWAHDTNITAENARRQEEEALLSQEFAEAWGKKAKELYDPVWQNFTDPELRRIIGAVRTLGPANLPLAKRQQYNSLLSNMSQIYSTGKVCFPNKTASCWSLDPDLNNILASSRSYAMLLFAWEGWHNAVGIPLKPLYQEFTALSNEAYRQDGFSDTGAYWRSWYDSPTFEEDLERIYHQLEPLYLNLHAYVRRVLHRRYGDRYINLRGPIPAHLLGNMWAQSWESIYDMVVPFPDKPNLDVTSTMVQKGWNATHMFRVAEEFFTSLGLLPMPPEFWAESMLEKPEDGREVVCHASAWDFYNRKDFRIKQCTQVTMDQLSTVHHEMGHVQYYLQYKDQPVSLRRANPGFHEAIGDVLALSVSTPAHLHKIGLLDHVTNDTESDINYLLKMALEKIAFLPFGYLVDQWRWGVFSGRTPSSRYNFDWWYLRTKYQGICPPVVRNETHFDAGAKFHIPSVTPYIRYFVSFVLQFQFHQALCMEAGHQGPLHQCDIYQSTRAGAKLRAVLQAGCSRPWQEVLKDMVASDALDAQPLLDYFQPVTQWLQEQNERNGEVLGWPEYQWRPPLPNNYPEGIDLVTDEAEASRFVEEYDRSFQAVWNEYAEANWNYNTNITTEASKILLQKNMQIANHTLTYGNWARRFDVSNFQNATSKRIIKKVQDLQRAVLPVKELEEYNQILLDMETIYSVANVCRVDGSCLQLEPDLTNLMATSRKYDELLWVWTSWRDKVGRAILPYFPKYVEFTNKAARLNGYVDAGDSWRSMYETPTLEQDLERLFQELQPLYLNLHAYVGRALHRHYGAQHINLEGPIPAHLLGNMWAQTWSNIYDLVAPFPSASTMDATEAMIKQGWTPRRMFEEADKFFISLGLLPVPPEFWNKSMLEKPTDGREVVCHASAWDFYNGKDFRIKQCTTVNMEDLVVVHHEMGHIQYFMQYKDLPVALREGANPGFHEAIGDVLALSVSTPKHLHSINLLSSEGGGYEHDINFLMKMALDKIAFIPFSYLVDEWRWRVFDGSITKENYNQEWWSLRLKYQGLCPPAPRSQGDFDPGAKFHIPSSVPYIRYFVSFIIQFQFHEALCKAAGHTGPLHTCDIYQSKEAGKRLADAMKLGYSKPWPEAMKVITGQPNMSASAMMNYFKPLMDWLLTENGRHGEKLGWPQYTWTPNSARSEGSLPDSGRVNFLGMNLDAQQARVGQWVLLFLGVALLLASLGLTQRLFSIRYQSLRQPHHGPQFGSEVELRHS
Particulars: cited from earlier work; for IC50: read-out: ACEi IC50. The text has this: Moreover, the C- and N-terminal amino acids are believed to play a crucial function in the activity of ACEi peptides ([21]). Yu et al. ([56]) reported that C-terminus (such as Trp, Tyr, Pro, or Phe) and N-terminus (such as Pro, Phe, Trp, or Met) hydrophobic amino acid residues have positive effects on the ACEi ...

Experiment [2] deals with T1, ACE. Particulars: cited from earlier work. From the text:
Peptide size and amino acid sequence are two key factors affecting the ACEi ability of BPs ([17], [21]). Peptide size decides the affinity between BPs and ACE because big polypeptides cannot be accommodated in and access the narrow channel of ACE ([21]). For example, VPP and IPP can easily access and bind the Zn^2+ of ACE channel, but ALPMHIR has low binding scores with ACE because it uncomfortably accesses the narrow channel ([19]). In the experiment, TRP3, TRP6, TRP9, and TRP10 are tetrapeptides or pentapeptides, and small size increases their access to the active channel of ACE, and this ha ...

For experiment [3], the system named is HUVECs. Kind of experiment: NO production in HUVECs (assay kit). Format: cell-based, human. Conditions: control 33.68 ± 0.96 μM. Here is the method:
(§1) HUVECs were cultured in DMEM supplemented with 100 µg/mL streptomycin, 10% FBS (v/v), and 100 U/mL penicillin at 37°C in a humidified 5% CO2 atmosphere for 24 h.
(§2) After treating with ACEi peptides (TRP3, TRP6, TRP9, or TRP12, respectively) for 24 h, NO and ET-1 contents were separately determined by employing human NO and ET-1 assay kit as per manufactures’ protocol ([18]).

The subject of experiment [4] is HUVECs. As to the kind of experiment: ET-1 secretion in HUVECs (assay kit). Format: cell-based, human. Conditions: control 55.37 ± 2.53 pg./mL. As to the method: as §1, §2
Experiment [5] deals with T2, angiotensin-I-converting enzyme (ACE) (UniProt P12822).
T2 sequence: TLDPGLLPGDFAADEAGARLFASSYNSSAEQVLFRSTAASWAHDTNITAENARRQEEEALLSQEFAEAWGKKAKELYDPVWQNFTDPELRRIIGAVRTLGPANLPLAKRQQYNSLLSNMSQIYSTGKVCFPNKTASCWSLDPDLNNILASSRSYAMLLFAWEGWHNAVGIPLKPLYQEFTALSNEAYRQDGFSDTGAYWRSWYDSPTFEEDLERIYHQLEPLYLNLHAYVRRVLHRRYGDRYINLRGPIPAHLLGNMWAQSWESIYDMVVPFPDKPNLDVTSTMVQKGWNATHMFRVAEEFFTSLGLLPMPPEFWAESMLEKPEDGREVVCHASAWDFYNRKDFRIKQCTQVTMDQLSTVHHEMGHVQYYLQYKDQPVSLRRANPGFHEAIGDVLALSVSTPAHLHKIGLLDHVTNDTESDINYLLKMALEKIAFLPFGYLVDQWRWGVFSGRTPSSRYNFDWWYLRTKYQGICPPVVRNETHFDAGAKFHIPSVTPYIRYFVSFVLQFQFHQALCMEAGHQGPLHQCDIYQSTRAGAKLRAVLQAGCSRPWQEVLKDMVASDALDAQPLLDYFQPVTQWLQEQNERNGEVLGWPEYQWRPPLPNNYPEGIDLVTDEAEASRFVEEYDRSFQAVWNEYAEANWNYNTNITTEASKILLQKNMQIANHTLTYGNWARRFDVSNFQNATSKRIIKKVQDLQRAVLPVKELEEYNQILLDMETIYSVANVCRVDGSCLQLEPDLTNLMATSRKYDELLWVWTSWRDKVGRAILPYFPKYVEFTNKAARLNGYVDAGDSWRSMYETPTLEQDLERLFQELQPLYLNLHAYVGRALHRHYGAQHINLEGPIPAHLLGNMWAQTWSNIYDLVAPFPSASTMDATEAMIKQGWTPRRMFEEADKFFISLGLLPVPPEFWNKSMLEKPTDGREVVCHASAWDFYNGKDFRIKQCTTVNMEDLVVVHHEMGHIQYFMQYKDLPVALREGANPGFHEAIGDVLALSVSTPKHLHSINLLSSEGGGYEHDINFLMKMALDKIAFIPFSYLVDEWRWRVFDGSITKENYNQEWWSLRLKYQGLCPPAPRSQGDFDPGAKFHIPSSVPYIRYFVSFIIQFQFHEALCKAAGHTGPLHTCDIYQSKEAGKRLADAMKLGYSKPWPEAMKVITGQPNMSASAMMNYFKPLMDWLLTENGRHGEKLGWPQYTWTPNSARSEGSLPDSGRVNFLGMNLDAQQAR

Experiment [6] deals with T2, angiotensin-I-converting enzyme (ACE). This is another data set of the same source.

Consider NFRPQ [literature ACEi peptide], for which the “ACEi IC50” value on ACE [1] is 4280 µg/mL.
For IYSP [literature ACEi peptide], the “affinity with ACE (docking)” value on ACE [2] was -8.3 kcal/mol.
Take `NC[C@H](O)c1ccc(O)c(O)c1` [NE, norepinephrine, reference compound]: in the experiment on HUVECs [3] (NE treatment (0.5 μM)), the “NO level in HUVECs” value worked out at 18.59 ± 0.82 µM. In addition, the “ET-1 content in HUVECs” value in the experiment with HUVECs [4] (NE 0.5 μM) was found to be 73.57 ± 3.09 pg/mL.
For MVGSAPGVL [literature ACEi peptide], the “ACEi IC50” value at ACE [1] is 3090 µg/mL.
For the molecule SHGEY [literature ACEi peptide], the “affinity with ACE (docking)” value on ACE [2] was -8.7 kcal/mol.
LAPPSTRH [literature ACEi peptide]: the “ACEi IC50” value on ACE [1] was 1310 µg/mL.
Turning to YEGDP [literature ACEi peptide], on ACE [2], the “affinity with ACE (docking)” value is -8.8 kcal/mol.
For SWISS [literature ACEi peptide], the “affinity with ACE (docking)” value on ACE [2] is -8.6 kcal/mol.
As to `C[C@H](CS)C(=O)N1CCC[C@H]1C(=O)O` [Cap, captopril, reference compound], the “NO level in HUVECs” value in the experiment on HUVECs [3] (Cap treatment) came to 53.71 ± 2.313 µM. Besides, the “ET-1 content in HUVECs” value with HUVECs [4] (Cap 1.0 μM) stood at 27.32 ± 1.28 pg/mL.
As to YVVF [literature ACEi peptide], the “affinity with ACE (docking)” value at ACE [2] is -9.8 kcal/mol.
Regarding LVLL [literature ACEi peptide], at ACE [2], the “affinity with ACE (docking)” value was -8.6 kcal/mol.
In general, IC50 refers to the concentration needed to halve the response being measured. As to KFYG [literature ACEi peptide], at ACE [1], the IC50 was 90.5 µM.
As to YLRLHF [literature ACEi peptide], at ACE [1], the “ACEi IC50” value was 1260 µg/mL.
Turning to SPYGF [literature ACEi peptide], the “affinity with ACE (docking)” value at ACE [2] is -9.7 kcal/mol.
Regarding ACKEP [literature ACEi peptide], the IC50 on ACE [1] is 126 µM.
In the case of LSFR [literature ACEi peptide], the “affinity with ACE (docking)” value on ACE [2] is -8.5 kcal/mol.
With FRKE [literature ACEi peptide], the “ACEi IC50” value at ACE [1] was 6970 µg/mL.
Turning to WSPGF [TRP12 (WSPGF; Trp-Ser-Pro-Gly-Phe)], the ACEi rate (percent inhibition of ACE activity) of the RP-HPLC isolated peptide at 1.5 mg/mL in experiment [5] came to 78.2%. Besides, the ACEi activity (IC50): inhibition of ACE enzyme activity, substrate FAPGG, 37°C, product measured by HPLC at 228 nm in experiment [6] amounted to 670 µg/mL.
For YSHM [TRP9 (YSHM; Tyr-Ser-His-Met)], the ACEi rate (percent inhibition of ACE activity) of the RP-HPLC isolated peptide at 1.5 mg/mL in experiment [5] stood at 83.5%. In experiment [6], this molecule showed an ACEi activity (IC50): inhibition of ACE enzyme activity, substrate FAPGG, 37°C, product measured by HPLC at 228 nm of 490 µg/mL.
With WGESF [TRP3 (WGESF; Trp-Gly-Glu-Ser-Phe)], the ACEi rate (percent inhibition of ACE activity) of the RP-HPLC isolated peptide at 1.5 mg/mL in experiment [5] came out at 69.5%. The molecule also came in with an ACEi activity (IC50): inhibition of ACE enzyme activity, substrate FAPGG, 37°C, product measured by HPLC at 228 nm in experiment [6] of 930 µg/mL.
Regarding IKSW [TRP6 (IKSW; Ile-Lys-Ser-Trp)], in experiment [5], the ACEi rate (percent inhibition of ACE activity) of the RP-HPLC isolated peptide at 1.5 mg/mL was determined as 75.4%. Further, the ACEi activity (IC50): inhibition of ACE enzyme activity, substrate FAPGG, 37°C, product measured by HPLC at 228 nm in experiment [6] was found to be 790 µg/mL.

The record behind these values is PMC10369073, “Production, identification, in silico analysis, and cytoprotection on H2O2-induced HUVECs of novel angiotensin-I-converting enzyme inhibitory peptides from Skipjack tuna roes” (Frontiers in Nutrition, 2023).
